In ChEMBL document CHEMBL3758130, “Effect of Chicoric Acid on Mast Cell-Mediated Allergic Inflammation in Vitro and in Vivo” (J Nat Prod, 2015):
The source made the active and inactive calls. The rule behind the calls is not given here.

How the values were obtained:
HMC1 [1] = test: Antiinflammatory activity in HMC1 cells assessed as suppression of PMACI-induced IL-1beta production pretreated for 30 mins followed by addition of PMACI incubated for 24 hrs by enzyme immunoassay; conditions: Homo sapiens
HMC1 [2] = test: Antiinflammatory activity in HMC1 cells assessed as suppression of PMACI-induced TNF-alpha production pretreated for 30 mins followed by addition of PMACI incubated for 24 hrs by enzyme immunoassay; conditions: Homo sapiens
[3] = target: T1, NF-kappa-B inhibitor alpha (Homo sapiens) (UniProt P25963); test: Inhibition of PMACI-induced degradation of IkappaB-alpha in HMC1 cells at 12.5 to 50 uM pretreated for 30 mins followed by addition of PMACI incubated for 15 mins by Western blot analysis
T1 sequence (whole entry): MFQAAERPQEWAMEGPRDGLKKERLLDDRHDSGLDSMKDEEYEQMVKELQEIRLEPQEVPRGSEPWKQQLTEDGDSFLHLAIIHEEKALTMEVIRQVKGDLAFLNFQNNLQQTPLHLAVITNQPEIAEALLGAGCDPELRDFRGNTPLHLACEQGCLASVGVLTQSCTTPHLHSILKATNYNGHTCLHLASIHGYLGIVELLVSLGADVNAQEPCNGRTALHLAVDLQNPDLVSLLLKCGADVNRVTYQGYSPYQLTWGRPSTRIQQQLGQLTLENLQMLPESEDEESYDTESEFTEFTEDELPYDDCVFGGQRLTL

[4] = target: RAC-alpha serine/threonine-protein kinase (Homo sapiens) (UniProt P31749); test: Inhibition of PMACI-induced phosphorylation of Akt at […] in HMC1 cells at 12.5 to 50 uM pretreated for 30 mins followed by addition of PMACI incubated for 5 mins by Western blot analysis
RAC-alpha serine/threonine-protein kinase (Homo sapiens), sequence (P31749 whole entry): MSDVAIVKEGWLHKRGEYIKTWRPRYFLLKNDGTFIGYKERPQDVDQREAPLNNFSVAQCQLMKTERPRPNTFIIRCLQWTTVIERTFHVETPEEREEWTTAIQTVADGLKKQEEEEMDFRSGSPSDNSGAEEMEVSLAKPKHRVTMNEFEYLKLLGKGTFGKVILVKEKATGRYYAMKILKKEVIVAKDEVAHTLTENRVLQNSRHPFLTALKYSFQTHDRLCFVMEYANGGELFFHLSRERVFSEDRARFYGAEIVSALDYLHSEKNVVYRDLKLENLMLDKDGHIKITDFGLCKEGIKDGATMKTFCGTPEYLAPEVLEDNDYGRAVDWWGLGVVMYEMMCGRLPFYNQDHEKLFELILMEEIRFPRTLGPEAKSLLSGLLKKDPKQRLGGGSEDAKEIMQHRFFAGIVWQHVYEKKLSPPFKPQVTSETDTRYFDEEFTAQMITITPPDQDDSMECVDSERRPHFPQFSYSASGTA

Mus musculus [5] = test: Antiinflammatory activity in ICR male mouse assessed as reduction in compound 48/80-induced mortality rate at 20 mg/kg, ip dosed 1 hr prior to anaphylactic shock measured for 1 hr
HMC1 [6] = test: Antiinflammatory activity in HMC1 cells assessed as suppression of pro-caspase-1 degradation pretreated for 30 mins followed by addition of PMACI incubated for 15 mins by Western blot analysis; conditions: Homo sapiens
HMC1 [7] = test: Antiinflammatory activity in HMC1 cells assessed as suppression of PMACI-induced IL-6 production pretreated for 30 mins followed by addition of PMACI incubated for 24 hrs by enzyme immunoassay; conditions: Homo sapiens
[8] = Effect on JNK level in HMC1 cells at 12.5 to 50 uM pretreated for 30 mins followed by addition of PMACI incubated for 15 mins by Western blot analysis; format: cell-based; conditions: human, hmc1, 0.25 h
[9] = target: MAP kinase p38 (Homo sapiens) (UniProt O15264+Q15759+Q16539+P53778); test: Inhibition of PMACI-induced phosphorylation of p38 in HMC1 cells at 12.5 to 50 uM pretreated for 30 mins followed by addition of PMACI incubated for 15 mins by Western blot analysis
[10] = Effect on IKKalpha/beta level in HMC1 cells at 12.5 to 50 uM pretreated for 30 mins followed by addition of PMACI incubated for 15 mins by Western blot analysis; format: ADME, cell-based; conditions: human, hmc1, 0.25 h
[11] = Effect on p38 level in HMC1 cells at 12.5 to 50 uM pretreated for 30 mins followed by addition of PMACI incubated for 15 mins by Western blot analysis; format: ADME, cell-based; conditions: human, hmc1, 0.25 h
[12] = Effect on ERK level in HMC1 cells at 12.5 to 50 uM pretreated for 30 mins followed by addition of PMACI incubated for 15 mins by Western blot analysis; format: cell-based; conditions: human, hmc1, 0.25 h
Mus musculus [13] = test: Antiinflammatory activity in ICR male mouse assessed as reduction in compound 48/80-induced serum histamine level at 20 mg/kg, ip dosed 1 hr prior to anaphylactic shock by enzymeimmunoassay
[14] = target: Inhibitor of NF-kappa-B kinase alpha/beta (Homo sapiens) (UniProt O14920+O15111); test: Inhibition of PMACI-induced phosphorylation of IKKalpha/beta in HMC1 cells at 12.5 to 50 uM pretreated for 30 mins followed by addition of PMACI incubated for 15 mins by Western blot analysis
[15] = target: c-Jun N-terminal kinase, JNK (Homo sapiens) (UniProt P45983+P53779+P45984); test: Inhibition of PMACI-induced phosphorylation of JNK in HMC1 cells at 12.5 to 50 uM pretreated for 30 mins followed by addition of PMACI incubated for 15 mins by Western blot analysis
[16] = Effect on Akt level in HMC1 cells at 12.5 to 50 uM pretreated for 30 mins followed by addition of PMACI incubated for 5 mins by Western blot analysis; format: ADME, cell-based; conditions: human, hmc1, 5 min
[17] = Cytotoxicity against HMC1 cells at 6.25 to 50 uM after 24 hrs by MTT assay; format: cell-based; conditions: human, hmc1, 24 h
HMC1 [18] = test: Inhibition of PMACI-induced phosphorylation of ERK in HMC1 cells at 12.5 to 50 uM pretreated for 30 mins followed by addition of PMACI incubated for 15 mins by Western blot analysis; conditions: Homo sapiens
HMC1 [19] = test: Antiinflammatory activity in HMC1 cells assessed as suppression of PMACI-induced IL-1beta mRNA expression pretreated for 30 mins followed by addition of PMACI incubated for 6 hrs by qRT-PCR analysis; conditions: Homo sapiens
HMC1 [20] = test: Antiinflammatory activity in HMC1 cells assessed as suppression of PMACI-induced IL-6 mRNA expression pretreated for 30 mins followed by addition of PMACI incubated for 6 hrs by qRT-PCR analysis; conditions: Homo sapiens
[21] = target: T1, NF-kappa-B inhibitor alpha (Homo sapiens); test: Inhibition of PMACI-induced phosphorylation of IkappaB-alpha in HMC1 cells at 12.5 to 50 uM pretreated for 30 mins followed by addition of PMACI incubated for 15 mins by Western blot analysis
HMC1 [22] = test: Antiinflammatory activity in HMC1 cells assessed as suppression of PMACI-induced TNF-alpha mRNA expression pretreated for 30 mins followed by addition of PMACI incubated for 6 hrs by qRT-PCR analysis; conditions: Homo sapiens

O=C(/C=C/c1ccc(O)c(O)c1)O[C@@H](C(=O)O)[C@@H](OC(=O)/C=C/c1ccc(O)c(O)c1)C(=O)O [CICHORIC ACID]
Activity (HMC1 [1]): Dose-dependent effect | Activity (HMC1 [2]): Dose-dependent effect | inhibition [3]: Active | inhibition [4]: Active | Activity (Mus musculus [5]): Active | Activity (HMC1 [6]): Active | Activity (HMC1 [7]): Dose-dependent effect | Activity [8]: Non-toxic | inhibition [9]: inactive | Activity [10]: Non-toxic | Activity [11]: Non-toxic | Activity [12]: Non-toxic | Activity (Mus musculus [13]): Active | inhibition [14]: Active | inhibition [15]: inactive | Activity [16]: Non-toxic | Activity [17]: Non-toxic | inhibition (HMC1 [18]): inactive | Activity (HMC1 [19]): Dose-dependent effect | Activity (HMC1 [20]): Dose-dependent effect | inhibition [21]: Active | Activity (HMC1 [22]): Dose-dependent effect
